From patent US20170050957A1, “4-AMINO-6-(HETEROCYCLIC)PICOLINATES AND 6-AMINO-2-(HETEROCYCLIC)PYRIMIDINE-4-CARBOXYLATES AND THEIR USE AS HERBICIDES” (Dow AgroSciences LLC, priority 2013, published 2017)
Where two headings read alike, the source gives them in different places.

Key:
[1] = test system: Key Broadleaf Weed and Crop Species; test: Post-emergent Test II herbicidal activity (Table 15); format: in vivo; settings: post-emergence, 336 h, 14 d; for pest or weed control at 35 g/ha: 35 g ai/ha; for pest or weed control at 70 g/ha: 70 g ai/ha; for pest or weed control at 140 g/ha: 140 g ai/ha
Summary of the method: (§1)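 Plants grown in greenhouse (~15 h photoperiod, 23-29 °C day, 22-28 °C night) to first or second true leaf stage, then sprayed post-emergence at 187 L/ha with a high rate and 1/2×, 1/4×, 1/8× and 1/16× dilutions. Injury scored visually after 14 d, 0-100% versus untreated plants.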

[2] = test system: Key Grass and Sedge Weeds as well as Grass Crops; test: Post-emergent Test II herbicidal activity (Table 16); format: in vivo; settings: post-emergence, 336 h; for pest or weed control at 35 g/ha: 35 g ai/ha; for pest or weed control at 70 g/ha: 70 g ai/ha; for pest or weed control at 140 g/ha: 140 g ai/ha
Summary of the method: as §1

[3] = Abutilon theophrasti, velvetleaf (Abutilon theophrasti), read-out: Visual Growth Reduction (%) 14 Days After Application, ABUTH
[4] = Amaranthus retroflexus, redroot pigweed (Amaranthus retroflexus), read-out: Visual Growth Reduction (%) 14 Days After Application, AMARE
[5] = Brassica napus, oilseed rape, canola (Brassica napus), read-out: Visual Growth Reduction (%) 14 Days After Application, BRSNN
[6] = Chenopodium album, lambsquarters (Chenopodium album), read-out: Visual Growth Reduction (%) 14 Days After Application, CHEAL
[7] = Euphorbia heterophylla, wild poinsettia (Euphorbia heterophylla), read-out: Visual Growth Reduction (%) 14 Days After Application, EPHHL
[8] = Helianthus annuus, sunflower (Helianthus annuus), read-out: Visual Growth Reduction (%) 14 Days After Application, HELAN
[9] = Cyperus esculentus, yellow nutsedge (Cyperus esculentus), 14 d, read-out: Visual Growth Reduction (%) 14 Days After Application, CYPES
[10] = Echinochloa crus-galli, barnyardgrass (Echinochloa crus-galli), 14 d, read-out: Visual Growth Reduction (%) 14 Days After Application, ECHCG
[11] = Oryza sativa, rice (Oryza sativa), 14 d, read-out: Visual Growth Reduction (%) 14 Days After Application, ORYSA
[12] = Setaria faberi, giant foxtail (Setaria faberi), 14 d, read-out: Visual Growth Reduction (%) 14 Days After Application, SETFA
[13] = Triticum aestivum, wheat, spring (Triticum aestivum), 14 d, read-out: Visual Growth Reduction (%) 14 Days After Application, TRZAS
[14] = Zea mays, maize, corn (Zea mays), 14 d, read-out: Visual Growth Reduction (%) 14 Days After Application, ZEAMX
[15] = Cyperus esculentus, yellow nutsedge (Cyperus esculentus), 14 days after application, read-out: Visual Growth Reduction (%) 14 Days After Application CYPES
[16] = Echinochloa crus-galli, barnyardgrass (Echinochloa crus-galli), 14 days after application, read-out: Visual Growth Reduction (%) 14 Days After Application ECHCG
[17] = Oryza sativa, rice (Oryza sativa), 14 days after application, read-out: Visual Growth Reduction (%) 14 Days After Application ORYSA
[18] = Setaria faberi, giant foxtail (Setaria faberi), 14 days after application, read-out: Visual Growth Reduction (%) 14 Days After Application SETFA
[19] = Triticum aestivum, wheat, spring (Triticum aestivum), 14 days after application, read-out: Visual Growth Reduction (%) 14 Days After Application TRZAS
[20] = Zea mays, maize, corn (Zea mays), 14 days after application, read-out: Visual Growth Reduction (%) 14 Days After Application ZEAMX

COC(=O)c1nc(-c2ccc3cc[nH]c3c2)c(F)c(N)c1Cl [Compound 1.08]
pest or weed control at 35 g/ha [1, 3]: 85 to 94% | pest or weed control at 70 g/ha [1, 3]: 95 to 100% | pest or weed control at 140 g/ha [1, 3]: 95 to 100% | pest or weed control at 35 g/ha [1, 4]: 95 to 100% | pest or weed control at 70 g/ha [1, 4]: 95 to 100% | pest or weed control at 140 g/ha [1, 4]: 95 to 100% | pest or weed control at 35 g/ha [1, 5]: 45 to 59% | pest or weed control at 70 g/ha [1, 5]: 75 to 84% | pest or weed control at 140 g/ha [1, 5]: 85 to 94% | pest or weed control at 35 g/ha [1, 6]: 95 to 100% | pest or weed control at 70 g/ha [1, 6]: 95 to 100% | pest or weed control at 140 g/ha [1, 6]: 95 to 100% | pest or weed control at 35 g/ha [1, 7]: 95 to 100% | pest or weed control at 70 g/ha [1, 7]: 95 to 100% | pest or weed control at 140 g/ha [1, 7]: 95 to 100% | pest or weed control at 35 g/ha [1, 8]: 85 to 94% | pest or weed control at 70 g/ha [1, 8]: 95 to 100% | pest or weed control at 140 g/ha [1, 8]: 95 to 100% | melting point: 66 to 69 °C | pest or weed control at 35 g/ha [2, 9]: 0 to 29% | pest or weed control at 70 g/ha [2, 9]: 0 to 29% | pest or weed control at 140 g/ha [2, 9]: 0 to 29% | pest or weed control at 35 g/ha [2, 10]: 85 to 94% | pest or weed control at 70 g/ha [2, 10]: 95 to 100% | pest or weed control at 140 g/ha [2, 10]: 95 to 100% | pest or weed control at 35 g/ha [2, 11]: 0 to 29% | pest or weed control at 70 g/ha [2, 11]: 0 to 29% | pest or weed control at 140 g/ha [2, 11]: 0 to 29% | pest or weed control at 35 g/ha [2, 12]: 0 to 29% | pest or weed control at 70 g/ha [2, 12]: 60 to 74% | pest or weed control at 140 g/ha [2, 12]: 75 to 84% | pest or weed control at 35 g/ha [2, 13]: 0 to 29% | pest or weed control at 70 g/ha [2, 13]: 0 to 29% | pest or weed control at 140 g/ha [2, 13]: 30 to 44% | pest or weed control at 35 g/ha [2, 14]: 45 to 59% | pest or weed control at 70 g/ha [2, 14]: 75 to 84% | pest or weed control at 140 g/ha [2, 14]: 85 to 94%

COC(=O)c1nc(-c2ccc3ccsc3c2)c(F)c(N)c1Cl [Compound 3.12]
pest or weed control at 35 g/ha [1, 3]: 60 to 74% | pest or weed control at 70 g/ha [1, 3]: 95 to 100% | pest or weed control at 140 g/ha [1, 3]: 95 to 100% | pest or weed control at 35 g/ha [1, 4]: 60 to 74% | pest or weed control at 70 g/ha [1, 4]: 60 to 74% | pest or weed control at 140 g/ha [1, 4]: 85 to 94% | pest or weed control at 35 g/ha [1, 5]: 0 to 29% | pest or weed control at 70 g/ha [1, 5]: 0 to 29% | pest or weed control at 140 g/ha [1, 5]: 30 to 44% | pest or weed control at 35 g/ha [1, 6]: 95 to 100% | pest or weed control at 70 g/ha [1, 6]: 95 to 100% | pest or weed control at 140 g/ha [1, 6]: 95 to 100% | pest or weed control at 35 g/ha [1, 7]: 60 to 74% | pest or weed control at 70 g/ha [1, 7]: 60 to 74% | pest or weed control at 140 g/ha [1, 7]: 85 to 94% | pest or weed control at 35 g/ha [1, 8]: 85 to 94% | pest or weed control at 70 g/ha [1, 8]: 85 to 94% | pest or weed control at 140 g/ha [1, 8]: 85 to 94% | melting point: 185 to 189 °C | pest or weed control at 35 g/ha [2, 15]: 0 to 29% | pest or weed control at 70 g/ha [2, 15]: 0 to 29% | pest or weed control at 140 g/ha [2, 15]: 0 to 29% | pest or weed control at 35 g/ha [2, 16]: 85 to 94% | pest or weed control at 70 g/ha [2, 16]: 85 to 94% | pest or weed control at 140 g/ha [2, 16]: 85 to 94% | pest or weed control at 35 g/ha [2, 17]: 0 to 29% | pest or weed control at 70 g/ha [2, 17]: 0 to 29% | pest or weed control at 140 g/ha [2, 17]: 0 to 29% | pest or weed control at 35 g/ha [2, 18]: 0 to 29% | pest or weed control at 70 g/ha [2, 18]: 0 to 29% | pest or weed control at 140 g/ha [2, 18]: 0 to 29% | pest or weed control at 35 g/ha [2, 19]: 0 to 29% | pest or weed control at 70 g/ha [2, 19]: 0 to 29% | pest or weed control at 140 g/ha [2, 19]: 0 to 29% | pest or weed control at 35 g/ha [2, 20]: 95 to 100% | pest or weed control at 70 g/ha [2, 20]: 95 to 100% | pest or weed control at 140 g/ha [2, 20]: 95 to 100%
